Columns and labels:
[1] = Dissociation constant, pKa of the compound; type: physicochemical
Meriones unguiculatus = test: Inhibition of GR-73632-induced foot-tapping in iv dosed gerbils after 24 hrs; type: functional; conditions: read-out: ID50 (the source's name)
Cavia porcellus = test: Inhibition of resiniferatoxin-induced systemic vascular leakage in po dosed guinea pig […] model after 24 hrs; type: functional
Substance-P receptor = Substance-P receptor (Homo sapiens, UniProt P25103); test: Inhibition of NK1 receptor
Substance-P receptor, sequence (P25103 whole entry): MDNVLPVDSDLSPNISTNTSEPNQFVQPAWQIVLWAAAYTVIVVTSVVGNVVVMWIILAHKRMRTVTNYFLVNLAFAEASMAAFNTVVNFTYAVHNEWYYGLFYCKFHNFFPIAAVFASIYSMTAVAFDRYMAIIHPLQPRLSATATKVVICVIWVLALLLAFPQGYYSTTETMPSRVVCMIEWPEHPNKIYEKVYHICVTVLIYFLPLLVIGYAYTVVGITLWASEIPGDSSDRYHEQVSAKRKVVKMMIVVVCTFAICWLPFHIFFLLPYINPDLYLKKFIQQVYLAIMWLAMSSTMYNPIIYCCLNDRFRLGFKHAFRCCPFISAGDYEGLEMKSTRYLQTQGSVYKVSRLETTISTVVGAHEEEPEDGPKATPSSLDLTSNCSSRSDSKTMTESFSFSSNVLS

Cathepsin K = biological target: T1, Cathepsin K (Homo sapiens, UniProt P43235); test: Inhibition of cathepsin K
T1 sequence (P43235 whole entry): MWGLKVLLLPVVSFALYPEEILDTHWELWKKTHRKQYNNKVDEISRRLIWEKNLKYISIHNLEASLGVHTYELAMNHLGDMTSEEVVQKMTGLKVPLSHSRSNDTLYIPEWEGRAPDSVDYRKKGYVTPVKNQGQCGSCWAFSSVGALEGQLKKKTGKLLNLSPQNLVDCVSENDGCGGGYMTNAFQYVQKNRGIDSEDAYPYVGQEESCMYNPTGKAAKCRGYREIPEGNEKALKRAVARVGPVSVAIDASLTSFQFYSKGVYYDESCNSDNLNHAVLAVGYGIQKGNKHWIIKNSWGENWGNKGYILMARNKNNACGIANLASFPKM

[2] = Plasma clearance in rat at 2 mg/kg, po; type: ADME, organism-based; design: dose 2 mg/kg, route oral
[3] = Half life in rat plasma at 2 mg/kg, po; type: ADME, organism-based; design: dose 2 mg/kg, route oral
[4] = Oral bioavailability in rat; type: ADME, organism-based; conditions: in vivo
[5] = Cmax in rat at 2 mg/kg, po; type: ADME, organism-based; design: dose 2 mg/kg, route oral; conditions: in vivo
Cannabinoid receptor 1 = Cannabinoid receptor 1 (Homo sapiens, UniProt P21554); test: Displacement of [3H]CP-55940 from human CB1 receptor expressed in CHO cells; type: cell-based
Cannabinoid receptor 1, sequence (P21554 whole entry): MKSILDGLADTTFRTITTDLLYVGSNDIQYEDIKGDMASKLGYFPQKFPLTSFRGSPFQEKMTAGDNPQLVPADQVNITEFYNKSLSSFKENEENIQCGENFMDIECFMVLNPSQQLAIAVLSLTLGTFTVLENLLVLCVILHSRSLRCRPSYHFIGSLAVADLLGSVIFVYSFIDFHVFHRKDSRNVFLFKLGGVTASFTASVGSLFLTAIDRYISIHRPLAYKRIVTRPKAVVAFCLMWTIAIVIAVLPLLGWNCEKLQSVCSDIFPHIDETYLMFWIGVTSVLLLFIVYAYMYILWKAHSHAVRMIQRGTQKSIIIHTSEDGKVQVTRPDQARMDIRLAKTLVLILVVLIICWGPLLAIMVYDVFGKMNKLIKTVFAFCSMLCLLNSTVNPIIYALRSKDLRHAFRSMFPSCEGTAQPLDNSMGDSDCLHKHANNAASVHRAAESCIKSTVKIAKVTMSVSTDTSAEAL

[6] = Drug level in duct cannulated rat bile at 5 mg/kg, iv; type: ADME, organism-based; design: dose 5 mg/kg, route intravenous; conditions: in vivo, read-out: Drug uptake
[7] = Half life in rat plasma at 10 mg/kg, po; type: ADME, organism-based; design: dose 10 mg/kg, route oral
[8] = Plasma clearance in rat at 10 mg/kg, po; type: ADME, organism-based; design: dose 10 mg/kg, route oral
[9] = Metabolic stability in rat hepatocytes after 2 hrs
Liver microsomes = test: Metabolic stability in human liver microsomes assessed as covalent protein binding per mg of protein; type: ADME, Microsome
Prothrombin = Prothrombin (Homo sapiens, UniProt P00734); test: Inhibition of human thrombin
[10] = biological target: T2, Prostaglandin D2 receptor (Homo sapiens, UniProt Q13258)
T2 sequence (Q13258 whole entry): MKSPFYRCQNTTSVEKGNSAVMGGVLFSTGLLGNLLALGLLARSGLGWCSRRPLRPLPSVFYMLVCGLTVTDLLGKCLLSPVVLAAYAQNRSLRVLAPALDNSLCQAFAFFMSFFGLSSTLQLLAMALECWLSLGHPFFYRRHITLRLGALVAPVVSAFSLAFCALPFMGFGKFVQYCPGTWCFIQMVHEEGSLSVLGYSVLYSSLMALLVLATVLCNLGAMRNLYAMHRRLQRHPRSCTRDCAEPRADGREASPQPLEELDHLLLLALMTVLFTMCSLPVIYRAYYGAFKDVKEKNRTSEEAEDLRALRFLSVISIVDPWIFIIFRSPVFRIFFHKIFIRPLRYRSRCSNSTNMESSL

[11] = Cmax in rat at 10 mg/kg, po; type: ADME, organism-based; design: dose 10 mg/kg, route oral; conditions: in vivo
[12] = Half life in human plasma; type: ADME, organism-based

O=C(O)c1ccccc1F
pKa [1]: 3.27

Nc1cccc(C(F)(F)F)c1
pKa [1]: 3.49

Nc1ccc(C(F)(F)F)cc1
pKa [1]: 2.57

Fc1ccccn1
pKa [1]: -0.44

Fc1cccnc1
pKa [1]: 2.97

Fc1cnc2ccccc2c1
pKa [1]: 2.36

Fc1cccc2ncccc12
pKa [1]: 3.68

Fc1ccc2ncccc2c1
pKa [1]: 4

Fc1ccc2cccnc2c1
pKa [1]: 4.04

Fc1cccc2cccnc12
pKa [1]: 3.1

O=c1[nH]nc(CN2CCO[C@H](OCc3cc(C(F)(F)F)cc(C(F)(F)F)c3)[C@@H]2c2ccc(F)cc2)[nH]1
ED50 (Meriones unguiculatus): 1.24 mg/kg
ID90 (Cavia porcellus): 2.3 mg/kg

C[C@@H](O[C@H]1OCCN(Cc2n[nH]c(=O)[nH]2)[C@H]1c1ccccc1)c1cc(C(F)(F)F)cc(C(F)(F)F)c1
ED50 (Meriones unguiculatus): 1.11 mg/kg
ID90 (Cavia porcellus): 2.3 mg/kg
IC50 (Substance-P receptor): 0.09 nM

Nc1ccccc1F
pKa [1]: 3.2

CC(C)C[C@H](N[C@@H](c1ccc(-c2ccc(N3CCNCC3)cc2)cc1)C(F)(F)F)C(=O)NCC#N
IC50 (Cathepsin K): ≤ 0.005 nM

N[C@@H](CC(=O)N1CCn2c(nnc2C(F)(F)F)C1)Cc1cc(F)ccc1F
CL/F [2]: 2.58 L/h/kg
half-life [3]: 1.6 h

C[C@H](NC(=O)C(C)(C)Oc1ccccc1)[C@@H](Cc1ccc(Cl)cc1)c1ccccc1
CL/F [2]: 1.98 L/h/kg
bioavailability [4]: 9%
half-life [3]: 2.8 h
Cmax [5]: 0.18 µM

C[C@H](NC(=O)C(C)(C)Oc1cc(F)cc(F)c1)[C@@H](Cc1ccc(Cl)cc1)c1ccccc1
CL/F [2]: 2.1 L/h/kg
IC50 (Cannabinoid receptor 1): 1.47 nM
half-life [3]: 2.4 h
Cmax [5]: 0.3 µM

Oc1ccccc1F
pKa [1]: 8.73

CCc1nnc2n1CCN(C(=O)C[C@H](N)Cc1cc(F)c(F)cc1F)C2
CL/F [2]: 4.2 L/h/kg
half-life [3]: 1.7 h

N[C@@H](CC(=O)N1CCn2c(nnc2C(F)(F)F)C1)Cc1ccc(F)c(F)c1
CL/F [2]: 3.06 L/h/kg
half-life [3]: 1.8 h

O=C(O)c1cccc(F)c1
pKa [1]: 3.87

O=C(O)c1ccc(F)cc1
pKa [1]: 4.14

Nc1ccc(F)cc1
pKa [1]: 4.65

N#CCNC(=O)C1(NC(=O)c2ccc(-c3ccc(N4CCNCC4)cc3)cc2)CCCCC1
IC50 (Cathepsin K): 0.4 nM

C[C@H](NC(=O)C(C)(C)Oc1ccc(C(F)(F)F)cn1)[C@@H](Cc1ccc(Cl)cc1)c1ccccc1
CL/F [2]: 2.1 L/h/kg
IC50 (Cannabinoid receptor 1): 0.54 nM
bioavailability [4]: 100%
half-life [3]: 2.2 h
Cmax [5]: 1.2 µM

C[C@H](NC(=O)C(C)(C)Oc1ccccn1)[C@@H](Cc1ccc(Cl)cc1)c1ccccc1
CL/F [2]: 1.5 L/h/kg
bioavailability [4]: 29%
half-life [3]: 2.2 h
Cmax [5]: 0.44 µM

CC(=O)c1cc(S(C)(=O)=O)cc2c3c(n(Cc4ccc(Cl)cc4)c12)[C@@H](CC(=O)O)CC3
concentration [6]: 1100 µM
half-life [7]: 1.4 h
CL/F [8]: 0.84 L/h/kg
remaining at 2 h [9]: 93%
Activity (Liver microsomes): 18 pmol/h
bioavailability [4]: 100%

O=C(O)CC(F)(F)F
pKa [1]: 3.06

O=C(O)C(F)F
pKa [1]: 1.24

Cc1nnn[nH]1
pKa [1]: 4.9

N[C@@H](CC(=O)N1CCn2cnnc2C1)Cc1cc(F)c(F)cc1F
CL/F [2]: 2.4 L/h/kg
half-life [3]: 1 h

N=C(N)c1ccc([C@H]2C3C(=O)N(Cc4ccccc4F)C(=O)C3C3CCCN32)cc1 (some centres not stated)
Ki (Prothrombin): 500 nM

N=C(N)c1ccc([C@H]2C3C(=O)N(Cc4cccc(F)c4)C(=O)C3C3CCCN32)cc1 (some centres not stated)
Ki (Prothrombin): 360 nM

N#CCNC(=O)C1(N[C@@H](c2ccc(-c3ccc(N4CCNCC4)cc3)cc2)C(F)(F)F)CCCCC1
IC50 (Cathepsin K): 5 nM

CC(C)C[C@H](NC(=O)c1ccc(-c2ccc(N3CCNCC3)cc2)cc1)C(=O)NCC#N
IC50 (Cathepsin K): 0.015 nM

FC(F)(F)c1nnn[nH]1
pKa [1]: 1.7

N[C@@H](CC(=O)N1CCn2c(nnc2C(F)(F)C(F)(F)F)C1)Cc1cc(F)c(F)cc1F
CL/F [2]: 3.48 L/h/kg
half-life [3]: 2.3 h

CC(=O)c1cc(F)cc2c3c(n(Cc4ccc(Cl)cc4)c12)C(CC(=O)O)CC3 (configuration not stated)
Ki [10]: 1.1 nM
concentration [6]: 81 µM
half-life [7]: 4 h
CL/F [8]: 0.114 L/h/kg
Cmax [11]: 21 µM
remaining at 2 h [9]: 35%
Activity (Liver microsomes): 46 pmol/h
bioavailability [4]: 52%

O=c1[nH]nc(CN2CCO[C@H](OCc3cc(C(F)(F)F)cc(C(F)(F)F)c3)[C@@H]2c2ccccc2)[nH]1
ED50 (Meriones unguiculatus): 2.88 mg/kg
ID90 (Cavia porcellus): 5.4 mg/kg

Oc1ccc(F)cc1
pKa [1]: 9.89

Oc1cccc(F)c1
pKa [1]: 9.29

Oc1cccc(C(F)(F)F)c1
pKa [1]: 8.9

O=C(O)c1cccc(C(F)(F)F)c1
pKa [1]: 3.79

C[C@@H](O[C@H]1OCCN(Cc2n[nH]c(=O)[nH]2)[C@H]1c1ccc(F)cc1)c1cc(C(F)(F)F)cc(C(F)(F)F)c1 [APREPITANT]
ED50 (Meriones unguiculatus): 0.33 mg/kg
ID90 (Cavia porcellus): 1.8 mg/kg

Cc1ccc(-c2cc(C(F)(F)F)nn2-c2ccc(S(N)(=O)=O)cc2)cc1 [CELECOXIB]
half-life [12]: 11.2 h

CS(=O)(=O)c1cc(F)cc2c3c(n(Cc4ccc(Cl)cc4)c12)C(CC(=O)O)CC3 (stereo not drawn) [DIASTEREOMER 2]
concentration [6]: 103 µM
half-life [7]: 7 h
CL/F [8]: 0.144 L/h/kg
Cmax [11]: 39 µM
remaining at 2 h [9]: 32%
bioavailability [4]: 79%

N[C@@H](CC(=O)N1CCn2c(nnc2C(F)(F)F)C1)Cc1cc(F)c(F)cc1F [SITAGLIPTIN]
CL/F [2]: 3.6 L/h/kg
half-life [3]: 1.7 h

C[C@H](NC(=O)C(C)(C)Oc1ccc(C(F)(F)F)cn1)[C@@H](Cc1ccc(Cl)cc1)c1cccc(C#N)c1 [TARANABANT]
CL/F [2]: 1.98 L/h/kg
half-life [3]: 2.7 h
Cmax [5]: 0.49 µM

OCC(F)(F)F [TRIFLUOROETHANOL]
pKa [1]: 12.4

Reference: ChEMBL document CHEMBL1155778, “The many roles for fluorine in medicinal chemistry” (J Med Chem, 2008)
